ChEMBL document CHEMBL1201862, “PubChem BioAssay data set” (2004)
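Tested at 5 concentrations; 48 h exposure; 96-well plates; endpoints linearly interpolated, else capped at highest concentration. GI50 is the concentration that inhibits growth by half.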 Activity calls are given as the source filed them. Rule as the data show it: active = GI50 up to about 1.1 µM and inactive = higher.

Assays:
Assay in all cases: growth of human tumour cells (NCI), 48 h
NCI/ADR-RES = tested on: NCI/ADR-RES
A498 = tested on: A498
SK-OV-3 = tested on: SK-OV-3
SK-MEL-2 = tested on: SK-MEL-2
NCI-H226 = tested on: NCI-H226
Hs-578T = tested on: Hs-578T
HOP-92 = tested on: HOP-92
A549 = tested on: A549
T47D = tested on: T47D
BT-549 = tested on: BT-549
HL-60 = tested on: HL-60
OVCAR-4 = tested on: OVCAR-4
UACC-62 = tested on: UACC-62
SK-MEL-5 = tested on: SK-MEL-5
SNB-75 = tested on: SNB-75
UACC-257 = tested on: UACC-257
M14 = tested on: M14
HT-29 = tested on: HT-29
IGROV-1 = tested on: IGROV-1
NCI-H23 = tested on: NCI-H23
NCI-H460 = tested on: NCI-H460
CAKI-1 = tested on: CAKI-1
ACHN = tested on: ACHN
KM12 = tested on: KM12
MDA-MB-231 = tested on: MDA-MB-231
OVCAR-3 = tested on: OVCAR-3
HCT-116 = tested on: HCT-116
LOX IMVI = tested on: LOX IMVI
RPMI-8226 = tested on: RPMI-8226
K562 = tested on: K562
UO-31 = tested on: UO-31
SF-268 = tested on: SF-268
TK-10 = tested on: TK-10
MDA-N = tested on: MDA-N
PC-3 = tested on: PC-3
HCC 2998 = tested on: HCC 2998
MCF7 = tested on: MCF7
786-0 = tested on: 786-0
SW-620 = tested on: SW-620
NCI-H522 = tested on: NCI-H522
SN12C = tested on: SN12C
RXF 393 = tested on: RXF 393
HCT-15 = tested on: HCT-15
MDA-MB-435 = tested on: MDA-MB-435
CCRF-CEM = tested on: CCRF-CEM
SF-539 = tested on: SF-539
EKVX = tested on: EKVX
U-251 = tested on: U-251
HOP-62 = tested on: HOP-62
MOLT-4 = tested on: MOLT-4
DU-145 = tested on: DU-145
SF-295 = tested on: SF-295
SNB-19 = tested on: SNB-19
Malme-3M = tested on: Malme-3M
OVCAR-8 = tested on: OVCAR-8
SR = tested on: SR
SK-MEL-28 = tested on: SK-MEL-28
OVCAR-5 = tested on: OVCAR-5
COLO 205 = tested on: COLO 205

O=C1/C(=C(/Br)I)c2ccccc2-c2ccccc21
GI50 (NCI/ADR-RES): 9.02 µM (inactive) | GI50 (A498): 16.4 µM (inactive) | GI50 (SK-OV-3): 15.7 µM (inactive) | GI50 (SK-MEL-2): 8.73 µM (inactive) | GI50 (NCI-H226): 18.8 µM (inactive) | GI50 (Hs-578T): 28.6 µM (inactive) | GI50 (HOP-92): 2.79 µM (inactive) | GI50 (A549): 15.9 µM (inactive) | GI50 (T47D): 11.9 µM (inactive) | GI50 (BT-549): 7.03 µM (inactive) | GI50 (HL-60): 0.248 µM (active) | GI50 (OVCAR-4): 14.7 µM (inactive) | GI50 (UACC-62): 7.19 µM (inactive) | GI50 (SK-MEL-5): 16 µM (inactive) | GI50 (SNB-75): 15.5 µM (inactive) | GI50 (UACC-257): 6.01 µM (inactive) | GI50 (M14): 9.95 µM (inactive) | GI50 (HT-29): 6.55 µM (inactive) | GI50 (IGROV-1): 13.2 µM (inactive) | GI50 (NCI-H23): 18.1 µM (inactive) | GI50 (NCI-H460): 17.8 µM (inactive) | GI50 (CAKI-1): 5.57 µM (inactive) | GI50 (ACHN): 7.26 µM (inactive) | GI50 (KM12): 14.2 µM (inactive) | GI50 (MDA-MB-231): 6.14 µM (inactive) | GI50 (OVCAR-3): 9.98 µM (inactive) | GI50 (HCT-116): 7.85 µM (inactive) | GI50 (LOX IMVI): 5.3 µM (inactive) | GI50 (RPMI-8226): 2.97 µM (inactive) | GI50 (K562): 2.36 µM (inactive) | GI50 (UO-31): 2.4 µM (inactive) | GI50 (SF-268): 14.1 µM (inactive) | GI50 (TK-10): 8.97 µM (inactive) | GI50 (MDA-N): 2.95 µM (inactive) | GI50 (PC-3): 8.34 µM (inactive) | GI50 (HCC 2998): 3.76 µM (inactive) | GI50 (MCF7): 8.85 µM (inactive) | GI50 (786-0): 3.34 µM (inactive) | GI50 (SW-620): 2.52 µM (inactive) | GI50 (NCI-H522): 2.09 µM (inactive) | GI50 (SN12C): 16.2 µM (inactive) | GI50 (RXF 393): 3.21 µM (inactive) | GI50 (HCT-15): 4.34 µM | GI50 (MDA-MB-435): 8.51 µM (inactive) | GI50 (CCRF-CEM): 2.16 µM (inactive) | GI50 (SF-539): 14.6 µM (inactive) | GI50 (EKVX): 18 µM (inactive) | GI50 (U-251): 12.6 µM (inactive) | GI50 (HOP-62): 17.1 µM (inactive) | GI50 (MOLT-4): 2.21 µM (inactive) | GI50 (DU-145): 16.3 µM (inactive) | GI50 (SF-295): 17 µM (inactive) | GI50 (SNB-19): 13.9 µM (inactive) | GI50 (Malme-3M): 3.56 µM (inactive) | GI50 (OVCAR-8): 16.9 µM (inactive) | GI50 (SR): 2.92 µM (inactive) | GI50 (SK-MEL-28): 21.5 µM (inactive) | GI50 (OVCAR-5): 11.9 µM (inactive) | GI50 (COLO 205): 2.04 µM (inactive)

Cc1ccc2c(c1)nc1n2C(N)=Nc2ccccc2S1
GI50 (NCI/ADR-RES): 43.4 µM (inactive) | GI50 (A498): 49.1 µM (inactive) | GI50 (SK-OV-3): > 100 µM (inactive) | GI50 (SK-MEL-2): > 100 µM (inactive) | GI50 (NCI-H226): 30.3 µM (inactive) | GI50 (Hs-578T): > 73.5 µM (inactive) | GI50 (HOP-92): > 40.6 µM (inactive) | GI50 (A549): 25.4 µM (inactive) | GI50 (T47D): 46.6 µM (inactive) | GI50 (BT-549): > 100 µM (inactive) | GI50 (HL-60): 2.67 µM (inactive) | GI50 (OVCAR-4): > 100 µM (inactive) | GI50 (UACC-62): > 60.8 µM (inactive) | GI50 (SK-MEL-5): 28.2 µM (inactive) | GI50 (SNB-75): > 54.6 µM (inactive) | GI50 (UACC-257): > 67.5 µM (inactive) | GI50 (M14): 3.44 µM (inactive) | GI50 (HT-29): 15.8 µM (inactive) | GI50 (IGROV-1): 6.4 µM (inactive) | GI50 (NCI-H23): 28.7 µM (inactive) | GI50 (NCI-H460): 5.92 µM (inactive) | GI50 (CAKI-1): > 100 µM (inactive) | GI50 (ACHN): 59.7 µM (inactive) | GI50 (KM12): 43.8 µM (inactive) | GI50 (MDA-MB-231): > 21 µM (inactive) | GI50 (OVCAR-3): 43.3 µM (inactive) | GI50 (HCT-116): 4.4 µM (inactive) | GI50 (LOX IMVI): 3.51 µM (inactive) | GI50 (RPMI-8226): 19.6 µM (inactive) | GI50 (K562): 5.79 µM (inactive) | GI50 (UO-31): 50.4 µM (inactive) | GI50 (SF-268): 48.1 µM (inactive) | GI50 (TK-10): > 100 µM (inactive) | GI50 (MDA-N): 5.78 µM (inactive) | GI50 (PC-3): 75 µM (inactive) | GI50 (HCC 2998): 51.3 µM (inactive) | GI50 (MCF7): > 27.2 µM (inactive) | GI50 (786-0): 52.7 µM (inactive) | GI50 (SW-620): 40 µM (inactive) | GI50 (NCI-H522): > 63.2 µM (inactive) | GI50 (SN12C): > 92.7 µM (inactive) | GI50 (RXF 393): > 100 µM (inactive) | GI50 (HCT-15): 24.2 µM | GI50 (MDA-MB-435): 71.1 µM (inactive) | GI50 (CCRF-CEM): 2.65 µM (inactive) | GI50 (SF-539): > 95.5 µM (inactive) | GI50 (EKVX): 36.4 µM (inactive) | GI50 (U-251): > 27.9 µM (inactive) | GI50 (HOP-62): > 83.4 µM (inactive) | GI50 (MOLT-4): 4.66 µM (inactive) | GI50 (DU-145): > 69.8 µM (inactive) | GI50 (SF-295): 47.6 µM (inactive) | GI50 (SNB-19): 35.8 µM (inactive) | GI50 (Malme-3M): > 100 µM (inactive) | GI50 (OVCAR-8): 25.5 µM (inactive) | GI50 (SR): 4.7 µM (inactive) | GI50 (SK-MEL-28): > 100 µM (inactive) | GI50 (OVCAR-5): > 75.7 µM (inactive) | GI50 (COLO 205): 14.8 µM (inactive)
